The record followed here is patent publication US7968585B2, “Inhibitors of 11-beta-hydroxysteroid dehydrogenase 1” (Eli Lilly and Company, priority 2006, dated 2011).

For assay [1], the target named is recombinant human 11β-HSD type 1 enzyme (Homo sapiens, UniProt P28845). Nature of the assay: 11β-HSD Type 1 Enzyme Assay (NADPH fluorescence). Type of assay: biochemical. Particulars: three hour incubation, read-out: Human 11-βHSD1 IC50. As to the method:
11β-HSD Type 1 Enzyme Assay
Human 11β-HSD type 1 activity is measured by assaying NADPH production by fluorescence assay. Solid compounds are dissolved in DMSO to a concentration of 10 mM. Twenty microliters of each are then transferred to a column of a 96-well polypropylene Nunc plate where they are further diluted 50-fold followed by subsequent two-fold titration, ten times across the plate with additional DMSO using a Tecan Genesis 200 automated system. Plates are then transferred to a Tecan Freedom 200 system with an attached Tecan Temo 96-well head and an Ultra 384 plate reader. Reagents are supplied in 96-well polypropylene Nunc plates and are dispensed individually into black 96-well Molecular Devices High Efficiency assay plates (40 μL/well capacity) in the following fashion: 9 μL/well of substrate (2.22 mM NADP, 55.5 μM Cortisol, 10 mM Tris, 0.25% Prionex, 0.1% Triton X100), 3 μL/well of water to compound wells or 3 μL to control and standard wells, 6 μL/well recombinant human 11β-HSD type 1 enzyme, 2 μL/well of compound dilutions. […] Plates are then shaken once more for 15 seconds then placed into an Ultra 384 microplate reader (355EX/460EM) for detection of NADPH fluorescence.

In assay [2] the target is T1, 11β-HSD1 (Homo sapiens, UniProt P28845).
T1 construct: assay medium containing 12 ng/mL hTNFα to induce expression of 11β-HSD1; endogenous in cells; host or cells: primary human aortic smooth muscle cells (AoSMC), induced with hTNFα
Nature of the assay: Human Aortic Smooth Muscle Cell Assay (cortisone to cortisol conversion). Type of assay: cell-based. Particulars: primary human aortic smooth muscle cells (AoSMC), hTNFα induced, cortisol immunoassay. The protocol:
Human Aortic Smooth Muscle Cell Assay
Primary human aortic smooth muscle cells (AoSMC) are cultured in 5% FBS growth medium to a passage number of 6, then pelleted by centrifugation and resuspended at a density of 9×10^4 cells/mL in 0.5% FBS assay medium containing 12 ng/mL hTNFα to induce expression of 11β-HSD1. Cells are seeded into 96-well tissue culture assay plates at 100 μL/well (9×10^3 cells/well) and incubated for 48 hours at 37° C., 5% CO2. Following induction, cells are incubated for 4 hours at 37° C., 5% CO2 in assay medium containing test compounds then treated with 10 μL/well of 10 μM cortisone solubilized in assay medium, and incubated for 16 hours at 37° C., 5% CO2. Medium from each well is transferred to a plate for subsequent analysis of cortisol using a competitive fluorescence resonance time resolved immunoassay. In solution, an allophycocyanin (APC)-cortisol conjugate and free cortisol analyte compete for binding to a mouse anti-cortisol antibody/Europium (Eu)-anti mouse IgG complex. Higher levels of free cortisol result in diminishing energy transfer from the Europium-IgG to the APC-cortisol complex resulting in less APC fluorescence. Fluorescent intensities for Europium and APC are measured using a LJL Analyst AD. Europium and APC excitation is measured using 360 nm excitation and 615 nm and 650 nm emission filters respectively. Time resolved parameters for Europium were 1000 μs integration time with a 200 μs delay. APC parameters are set at 150 μs integration time with a 50 μs delay. Fluorescent intensities measured for APC are modified by dividing by the Eu fluorescence (APC/Eu). This ratio is then used to determine the unknown cortisol concentration by interpolation using a cortisol standard curve fitted with a 4-parameter logistic equation. These concentrations are then used to determine compound activity by plotting concentration versus % inhibition, fitting with a 4-parameter curve and reporting the IC50.

The test system of assay [3] is cortisone conversion. Nature of the assay: Acute In Vivo Cortisone Conversion Assay. Particulars: male C57BL/6 mice, oral dose of 10 mg/kg, cortisone challenge after 16 hours, serum cortisol. The protocol: Acute In Vivo Cortisone Conversion Assay
In general, compounds are dosed orally into mice, the mice are challenged with a subcutaneous injection of cortisone at a set timepoint after compound injection, and the blood of each animal is collected some time later. Separated serum is then isolated and analyzed for levels of cortisone and cortisol by LC-MS/MS, followed by calculation of mean cortisol and percent inhibition of each dosing group. Specifically, male C57BL/6 mice are obtained from Harlan Sprague Dawley at average weight of 25 grams. Exact weights are taken upon arrival and the mice randomized into groups of similar weights. Compounds are prepared in 1% w-w HEC, 0.25% w-w polysorbate 80, 0.05% w-w Dow Corning antifoam #1510-US at various doses based on assumed average weight of 25 grams. Compounds are dosed orally, 200 μl per animal, followed by a subcutaneous dose, 200 μl per animal, of 30 mg/kg cortisone at 1 to 24 hours post compound dose. At 10 minutes post cortisone challenge, each animal is euthanized for 1 minute in a CO2 chamber, followed by blood collection via cardiac puncture into serum separator tubes. Once fully clotted, tubes are spun at 2500×g, 4° C. for 15 minutes, the serum transferred to wells of 96-well plates (Corning Inc, Costar #4410, cluster tubes, 1.2 ml, polypropylene), and the plates are frozen at −20° C. until analysis by LC-MS/MS. […]

As usually defined, the IC50 is the concentration that inhibits the measured activity by half.

T1 sequence (P28845 whole entry): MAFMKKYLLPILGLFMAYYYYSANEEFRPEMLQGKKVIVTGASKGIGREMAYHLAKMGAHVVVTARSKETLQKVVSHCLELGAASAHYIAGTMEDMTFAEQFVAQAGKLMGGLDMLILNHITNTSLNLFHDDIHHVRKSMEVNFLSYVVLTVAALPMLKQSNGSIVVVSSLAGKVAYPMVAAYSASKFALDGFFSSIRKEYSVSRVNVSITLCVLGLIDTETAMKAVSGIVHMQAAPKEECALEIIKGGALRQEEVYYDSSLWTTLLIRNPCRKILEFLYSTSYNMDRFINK
recombinant human 11β-HSD type 1 enzyme, sequence (P28845 whole entry): as above

For `O=C1N(Cc2c(Cl)cc(-c3ccc(F)cc3)cc2Cl)CCC12CCc1n[nH]cc1C2` (stereo not shown) [Example 14], the results for the IC50 in assay [1] and in assay [2] were 552 nM and 21.5 nM, respectively.

With `O=C(c1ccc(-c2cc(Cl)c(CN3CCC4(CCCCC4)C3=O)c(Cl)c2)cc1)N1CCC(C(F)(F)F)CC1` [Example 5, 2-[3,5-Dichloro-4′-(4-trifluoromethyl-piperidine-1-carbonyl)-biphenyl-4-ylmethyl]-2-aza-spiro[4.5]decan-1-one], in assay [3], the “% Inhibition after 16 hours (dose of 10 (mg/kg))” value is 69.3%. For the same compound, the IC50 in assay [2] was 47 nM.

With `O=C(c1ccc(-c2cc(Cl)c(CN3CCC4(CCCCC4)C3=O)c(Cl)c2)cc1)N1CCN(CCF)CC1` [Example 6, 2-{3,5-Dichloro-4′-[4-(2-fluoro-ethyl)-piperazine-1-carbonyl]-biphenyl-4-ylmethyl}-2-aza-spiro[4.5]decan-1-one], the “% Inhibition after 16 hours (dose of 10 (mg/kg))” value in assay [3] is listed as 41.2%. Besides, the IC50 in assay [1] was 888 nM; in assay [2], 20.5 nM.
